According to patent publication US8901315B2, “Thienopyrazole derivative having PDE7 inhibitory activity” (Daiichi Sankyo Company, Limited, priority 2004, dated 2014):
Structures can show the parent of a compound that is named as a salt. Where two headings read alike, the source gives them in different places.

Columns and labels:
[1] = target: PDE 7 (phosphodiesterase VII) (Homo sapiens (Human), UniProt Q13946); experiment: PDE 7 inhibiting effect (3H-cAMP hydrolysis, PDE 7 active fraction from MOLT-4 cells); type: biochemical; conditions: PDE 7 fraction from MOLT-4 cells, 0.064 μM cAMP, 10 μM rolipram, 2 hours at 25° C., read-out: PDE7 IC50
Method: Methods for Evaluating the PDE 7 Inhibiting Effect
The PDE 7 (phosphodiesterase VII) inhibiting effect of the compounds of the present invention was performed by the following method, which was modified assay method described in Biochemical. Pharmacol. 48(6), 1219-1223 (1994). • (1) The active fraction of PDE 7 (phosphodiesterase VII) was obtained. That is, MOLT-4 (obtainable from ATCC as ATCC No. CRL-1582), which was cell line of human acute lymphoblastic lymphoma T cells, was incubated in RPMI1640 culture medium containing 10% fetal bovine serum to obtain 5×10^8 MOLT-4 cells. The cells were collected by centrifugation and suspended with 10 mL of buffer solution A [25 mM of tris-HCl, 5 mM of 2-mercaptoethanol, 2 mM of benzamidine, 2 mM of EDTA, 0.1 mM of 4-(2-aminoethyl)benzenesulfonyl hydrochloride; pH 7.5], then homogenized by Polytron® homogenizer. The homogenate were centrifuged under 25,000×G for 10 minutes at 4° C. The supernatant was separated and thus obtained supernatant was further centrifuged under 100,000×G for 60 minutes at 4° C., and then filtrated with 0.2 μm filter to obtain the soluble fraction. • (2) The obtained soluble fraction was filled in equilibrium HiTrap Q column (5 mL×2) with buffer solution A, and phosphodiesterase fractions were eluted by 300 mL of buffer solution A with linear gradient from 0 to 0.8 M NaCl concentration. 5 mL each of 60 eluents were collected, and each eluents were examined for cyclic AMP metabolic activities of phosphodiesterase. […] After the reaction, suspension of Sephadex®-QAE in 10 mM of HEPES-Na (pH 7.0) was added to the reaction mixture, and the mixture was left at rest for 5 minutes.

[2] = target: PDE 4 (phosphodiesterase IV); experiment: PDE 4 inhibiting effect (3H-cAMP hydrolysis, PDE 4 active fraction from Balb/c mouse liver); type: biochemical; conditions: PDE 4 fraction from Balb/c mice liver, 0.064 μM cAMP, 2 hours at 25° C.; read-out: PDE4 IC50
Method: Methods for Evaluating the PDE 4 Inhibiting Effect
The PDE 4 (phosphodiesterase IV) inhibiting effect of the compounds of the present invention was performed by the following method, which was modified assay method described in Biochemical. […] That is, the livers obtained from three Balb/c mice (male, 12 weeks: obtainable from CLEA Japan, Inc.) were suspended with 30 mL of buffer solution B [20 mM of bis-tris, 5 mM of 2-mercaptoethanol, 2 mM of benzamidine, 2 mM of EDTA, 0.1 mM of 4-(2-aminoethyl)benzenesulfonyl hydrochloride, 50 mM of sodium acetate; pH 6.5], then homogenized by Polytron® homogenizer. The homogenate were centrifuged under 25,000×G for 10 minutes at 4° C. The supernatant was separated and thus obtained supernatant was further centrifuged under 100,000×G for 60 minutes at 4° C., and then filtrated with 0.2 μm filter to obtain the soluble fraction. • (2) The obtained soluble fraction was filled in equilibrium DEAE sepharose column (1×10 cm) with buffer solution B, and phosphodiesterase fractions were eluted by 120 mL of buffer solution B with linear gradient from 0.05 to 1M sodium acetate concentration. 5 mL each of 24 eluents were collected, and each eluents were examined for cyclic AMP metabolic activities of phosphodiesterase. […] After the reaction, suspension of Sephadex®-QAE in 10 mM of HEPES-Na (pH 7.0) was added to the reaction mixture, and the mixture was left at rest for 5 minutes.

Chain of PDE 7 (phosphodiesterase VII) (Q13946 whole entry): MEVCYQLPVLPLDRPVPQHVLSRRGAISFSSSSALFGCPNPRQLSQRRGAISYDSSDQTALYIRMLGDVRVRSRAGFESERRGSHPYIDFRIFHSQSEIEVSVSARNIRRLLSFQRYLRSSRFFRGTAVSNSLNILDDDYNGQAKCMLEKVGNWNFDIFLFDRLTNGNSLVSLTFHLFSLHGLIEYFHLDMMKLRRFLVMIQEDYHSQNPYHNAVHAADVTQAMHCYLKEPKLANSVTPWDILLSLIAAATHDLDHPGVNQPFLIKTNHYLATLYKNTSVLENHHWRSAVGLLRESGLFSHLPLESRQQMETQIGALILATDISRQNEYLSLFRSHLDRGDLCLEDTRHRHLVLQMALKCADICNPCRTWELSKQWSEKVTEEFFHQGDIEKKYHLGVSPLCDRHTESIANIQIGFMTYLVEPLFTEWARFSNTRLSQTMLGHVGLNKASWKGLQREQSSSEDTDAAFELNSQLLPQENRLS

SMILES | IC50 [1] | IC50 [2] | also measured
Cc1nn(C2CCCCC2)c2sc(C(=O)N[C@H]3C[C@@H]3CO)cc12 (racemic) [Example 340, (±)-1-Cyclohexyl-N-[trans-2-(hydroxymethyl)cyclopropyl]-3-methyl-1H-thieno[2,3-c]pyrazole-5-carboxamide] | 54 nM | 28000 nM | 
COc1cc(NC(=O)c2cc3c(C)nn(C4CCCCC4)c3s2)ccc1NC(C)=O [Example 10, N-[4-(Acetylamino)-3-methoxyphenyl]-1-cyclohexyl-3-methyl-1H-thieno[2,3-c]pyrazole-5-carboxamide] | 27 nM | 1800 nM | 
CC(=O)N1CCc2cc(NC(=O)c3cc4c(C)nn(C5CCCCC5)c4s3)ccc21 [Example 11, N-(1-Acetyl-2,3-dihydro-1H-indo-5-yl)-1-cyclohexyl-3-methyl-1H-thieno[2,3-c]pyrazole-5-carboxamide] | 19 nM | 2000 nM | 
CCOC(=O)Nc1ccc(NC(=O)c2cc3c(C)nn(C4CCCCC4)c3s2)cc1 [Example 12, Ethyl 4-{[(1-cyclohexyl-3-methyl-1H-thieno[2,3-c]pyrazol-5-yl)-carbonyl]amino}phenylcarbamate] | 53 nM | 5000 nM | 
Cc1nn(C2CCCCC2)c2sc(C(=O)Nc3ccc4c(c3)CCN4)cc12 [Example 14, 1-Cyclohexyl-N-(2,3-dihydro-1H-indol-5-yl)-3-methyl-1H-thieno[2,3-c]pyrazole-5-carboxamide HCl salt] | 88 nM | 3700 nM | 
CNC(=O)c1ccc(NC(=O)c2cc3c(C)nn(C4CCCCC4)c3s2)cc1 [Example 20] | 33 nM | > 30000 nM | 
CCC(=O)N1CCc2cc(NC(=O)c3cc4c(C)nn(C5CCCCC5)c4s3)ccc21 [Example 21, 1-Cyclohexyl-3-methyl-N-(1-propionyl-2,3-dihydro-1H-indol-5-yl)-1H-thieno-[2,3-c]pyrazole-5-carboxamide] | 84 nM | 2500 nM | 
Cc1nn(C2CCCCC2)c2sc(C(=O)Nc3ccc4c(c3)CCN4C(=O)C(C)C)cc12 [Example 23] | 83 nM | 4800 nM | 
Cc1nn(C2CCCCC2)c2sc(C(=O)Nc3ccc4c(c3)CCN4C(=O)C(C)(C)C)cc12 [Example 25, 1-Cyclohexyl-N-[1-(2,2-dimethylpropanoyl)-2,3-dihydro-1H-indol-5-yl]-3-methyl-1H-thieno[2,3-c]pyrazole-5-carboxamide] | 98 nM | 6500 nM | 
Cc1nn(C2CCCCC2)c2sc(C(=O)Nc3ccc4c(c3)CC(=O)N4)cc12 [Example 26, 1-Cyclohexyl-3-methyl-N-(2-oxo-2,3-dihydro-1H-indol-5-yl)-1H-thieno[2,3-c]pyrazole-5-carboxamide] | 44 nM | 3000 nM | 
CCNC(=O)c1ccc(NC(=O)c2cc3c(C)nn(C4CCCCC4)c3s2)cc1 [Example 28, 1-Cyclohexyl-N-{4-[(ethylamino)carbonyl]phenyl}-3-methyl-1H-thieno[2,3-c]pyrazole-5-carboxamide] | 50 nM | 30000 nM | 
Cc1nn(C2CCCCC2)c2sc(C(=O)Nc3ccc(C(=O)N4CCN(C)CC4)cc3)cc12 [Example 32, 1-Cyclohexyl-3-methyl-N-{4-[(4-methyl-1-piperazinyl)carbonyl]-phenyl}-1H-thieno[2,3-c]pyrazole-5-carboxamide] | 95 nM | 2500 nM | 
Cc1nn(C2CCCCC2)c2sc(C(=O)Nc3ccc(S(=O)(=O)N4CCN(C)CC4)cc3)cc12 [Example 36, 1-Cyclohexyl-3-methy-N-{4-[(4-methyl-1-piperazinyl)sulfonyl]-phenyl}-1H-thieno[2,3-c]pyrazole-5-carboxamide] | 40 nM | 25000 nM | 
COCCNC(=O)c1ccc(NC(=O)c2cc3c(C)nn(C4CCCCC4)c3s2)cc1 [Example 37, 1-Cyclohexyl-N-(4-{[(2-methoxyethyl)amino]carbonyl}phenyl)-3-methyl-1H-thieno[2,3-c]pyrazole-5-carboxamide] | 28 nM | 2000 nM | 
Cc1nn(C2CCCCC2)c2sc(C(=O)Nc3ccc(S(=O)(=O)N4CCN(CCO)CC4)cc3)cc12 [Example 79, 1-Cyclohexyl-N-(4-{[4-(2-hydroethyl)-1-piperazinyl]sulfonyl}-phenyl)-3-methyl-1H-thieno[2,3-c]pyrazole-5-carboxamide] | 60 nM |  | 
Cc1nn(C2CCCCC2)c2sc(C(=O)Nc3ccc(N4CCC(O)CC4)cc3)cc12 [Example 114] | 21 nM |  | 
Cc1nn(C2CCCCC2)c2sc(C(=O)Nc3ccc(N4CCC(O)CC4)c(F)c3)cc12 [Example 159, 1-Cyclohexyl-N-[3-fluoro-4-(4-hydroxy-1-piperidinyl)phenyl]-3-methyl-1H-thieno[2,3-c]pyrazole-5-carboxamide] | 35 nM |  | 
CNC(=O)[C@H]1CC[C@H](NC(=O)c2cc3c(C)nn(C4CCCCC4)c3s2)CC1 [Example 237, 1-Cyclohexyl-3-methyl-N-{4-[(methylamino)carbonyl]cyclohexyl}-1H-thieno[2,3-c]pyrazole-5-carboxamide] | 7.8 nM |  | 
Cc1nn(C2CCCCC2)c2sc(C(=O)NC3CCN(S(=O)(=O)N(C)C)CC3)cc12 [Example 240, 1-Cyclohexyl-N-{1-[(dimethylamino)sulfonyl]-4-piperidinyl}-3-methyl-1H-thieno[2,3-c]pyrazole-5-carboxamide] | 41 nM |  | 
Cc1nn(C2CCCCC2)c2sc(C(=O)N[C@H]3CCN(C(=O)N(C)C)C3)cc12 [Example 246, 1-Cyclohexyl-N-{(3S)-1-[(dimethylamino)carbonyl]pyrrolidinyl}-3-methyl-1H-thieno[2,3-c]pyrazole-5-carboxamide HCl salt] | 51 nM |  | 
Cc1nn(C2CCCCC2)c2sc(C(=O)N[C@@H]3CCN(C(=O)N(C)C)C3)cc12 [Example 323, 1-Cyclohexyl-N-{(3R)-1-[(dimethylamino)carbonyl]pyrrolidinyl}-3-methyl-1H-thieno[2,3-c]pyrazole-5-carboxamide HCl salt] | 71 nM |  | 
Cc1nn(C2CCCCC2)c2sc(C(=O)Nc3ccc(N4CCC(O)CC4)c(F)c3)cc12 [Example 365, 1-cyclohexyl-N-[3-fluoro-4-(4-hydroxy-1-piperidinyl)phenyl]-3-methyl-1H-thieno[2,3-c]pyrazole-5-carboxamide dimethanesulfonate] |  |  | IC50 ([1]; dimethanesulfonate): 41 nM
Cc1nn(C2CCCCC2)c2sc(C(=O)Nc3ccc(N4CCC(O)CC4)c(F)c3)cc12 [Example 366, 1-Cyclohexyl-N-[3-fluoro-4-(4-hydroxy-1-piperidinyl)phenyl]-3-methyl-1H-thieno[2,3-c]pyrazole-5-carboxamide p-toluenesulfonate] |  |  | IC50 ([1]; p-toluenesulfonate): 49 nM
Cc1nn(C2CCCCC2)c2sc(C(=O)Nc3ccc(N4CCC(O)CC4)cc3)cc12 [Example 367, 1-Cyclohexyl-N-[4-(4-hydroxy-1-piperidinyl)phenyl]-3-methyl-1H-thieno[2,3-c]pyrazole-5-carboxamide methanesulfonate] |  |  | IC50 ([1]; methanesulfonate): 20 nM
Cc1nn(C2CCCCC2)c2sc(C(=O)Nc3ccc(N4CCC(O)CC4)cc3)cc12 [Example 368, 1-Cyclohexyl-N-[4-(4-hydroxy-1-piperidinyl)phenyl]-3-methyl-1H-thieno[2,3-c]pyrazole-5-carboxamide p-toluenesulfonate] |  |  | IC50 ([1]; p-toluenesulfonate): 26 nM
Cc1nn(C2CCCCC2)c2sc(C(=O)Nc3ccc(CN4CCOCC4)nc3)cc12 [Example 412, 1-Cyclohexyl-3-methyl-N-[6-(4-morpholinylmethyl)-3-pyridinyl]-1H-thieno[2,3-c]pyrazole-5-carboxamide methanesulfonate] | 43 nM |  | 
